Test results from patent US20080220497A1, “Modulation of protein functionalities” (priority 2003, published 2008).

How the values were obtained:
[1] = target: T1, V599E Braf kinase (Homo sapiens, UniProt P15056, V600E); test: Thermal denaturation of oncogenic V599E Braf kinase; assay type: binding; conditions: 1.4 μM V599E Braf kinase, 20 μM small molecule; read-out: ΔTm (° C.) relative to unphosphorylated B-Raf(V599E)
T1 construct: 6×His-tag (N); made in house; host or cells: Sf9 insect cells (baculovirus)
Experimental: (§1) Denaturation was monitored by measuring the absolute absorbance of the solutions at an appropriate wavelength (typically 230 nm and 240 nm) as a function of temperature. As the protein became denatured, additional UV absorbing functional groups became exposed causing an increase in absorbance at the melting temperature. […] The thermal data were collected using Agilent spectrophotometers and ChemStation UV/Vis Thermal Denaturation software.
(§2) The final solution was transferred to a 50 μL cuvette for analysis.
as §2
(§3) A first derivative calculation with data smoothing was applied to the resulting data to report the point of inflection as the melting temperature.

[2] = target: T2, unphosphorylated p38-alpha kinase (Homo sapiens, UniProt Q16539, DEL261-261); test: Fluorescence affinity assay, unphosphorylated p38-alpha kinase; assay type: binding; conditions: for Ratio IC50s: doubly phosphorylated vs unphosphorylated p38-alpha, >1.0 = preference for unphosphorylated form; for IC50: ~24 nM enzyme, 1.0 uM SKF-86002, read-out: FP IC50 U-p38-alpha
T2 construct: 48 (6×His-TEV tag, full length); 6×His-TEV tag (N); purchased Decode Genetics, Inc; host or cells: E. coli
Source text: (§4) This fluorescence affinity assay is utilized in an affinity-based screen to identify small molecules which bind into switch control pockets of protein kinases. Binding of small molecule switch inhibitors displaces the switch control ligand phenylalanine of the DFG motif into an orientation which sterically blocks the ATP pocket. Such inhibitor-induced blockade of the ATP pocket is registered as an inhibition of binding of the fluoroprobe into the ATP pocket.
(§5) • 1. p38-alpha kinase • a. […] Polarstar Optima plate reader (BMG)
(§6) • 1. […] This dilution can be done automatically on a Tecan (or similar) robotic workstation or performed manually. • 3. Mix Solution A with the diluted compound solutions following Step 3 of Table 22. This step can be performed automatically on a Tecan (or similar) robotic workstation or performed manually. • 4. Incubate at 30° C. or room temp for 2 h, depending on protein stability. • 5. Read at emission wavelength 420 nm upon excitation at 340 nm.
The reaction was initiated by addition of the enzyme. […] By comparison of RFU (relative fluorescence units) values with that of a control (in the absence of small molecule modulators), the percentage of inhibition at each concentration of the small molecules was calculated. IC50 values for the small molecule modulators were calculated from the % inhibition values obtained at a range of concentrations of the small molecule modulators using Prism (available from GraphPad, Inc.). When time-dependent inhibition was assessed, the plate was read at multiple reaction times such as 0.5, 1, 2, 3, 4 and 6 hours. The IC50 values were calculated at each time point. An inhibition was assigned as time-dependent if the IC50 values decrease with the reaction time (more than two-fold in four hours).
(§7) A ratio greater than 1.0 indicates a preference for inhibiting the unphosphorylated form of p38-alpha kinase relative to the doubly phosphorylated form. A ratio less than 1.0 indicates a preference for inhibiting the doubly phosphorylated form of p38-alpha kinase relative to the unphosphorylated form.

[3] = target: T3, doubly phosphorylated p38-alpha kinase (Homo sapiens, UniProt Q16539); test: Fluorescence affinity assay, doubly phosphorylated p38-alpha kinase; assay type: binding; conditions: ~24 nM enzyme; 1.0 uM SKF-86002; read-out: FP IC50 P-p38-alpha
T3 construct: 6xHis ([…], seen only in the listing) (C); purchased Roche Applied Diagnostics
Source text: as §4, §5
as §6, with “nm. […]” for “nm.”
as §7

[4] = target: T2, unphosphorylated p38-alpha kinase; test: Thermal denaturation of unphosphorylated p38-alpha kinase; assay type: binding; conditions: for ΔTm (° C.) relative to unphosphorylated apo p38: […] p38-alpha kinase, 15 μM small molecule
Source text: as §1
The final protein and buffer solution was mixed gently using a pipetter to minimize denaturing due to over aggressive mixing. The final solution was transferred to a 50 μL cuvette for analysis.
as §2, §3

[5] = target: T3, doubly phosphorylated p38-alpha kinase; test: Thermal denaturation of doubly phosphorylated p38-alpha kinase; assay type: binding; conditions: for ΔTm (° C.) relative to doubly phosphorylated p38: 0.5 μM p38-alpha kinase, 20 μM small molecule
Experimental: as §1
The final concentration was 0.5 μM p38-alpha kinase and 20 μM small molecule. The final protein and buffer solution was mixed gently using a pipetter to minimize denaturing due to over aggressive mixing. The final solution was transferred to a 50 μL cuvette for analysis.
The protein and buffer solution was mixed gently using a pipetter to minimize denaturing due to over aggressive mixing. The final solution was transferred to a 50 μL cuvette for analysis.
as §3

[6] = tested on: Abl kinase; test: Thermal denaturation of Abl kinase; assay type: binding, human; conditions: 1 μM Abl kinase, 20 μM small molecule
Experimental: as §1
5 μL of 40 μM Abl kinase was mixed with 195 μL of the small molecule/buffer solution. The final concentration was 1 μM Abl kinase and 20 μM small molecule. The final protein and buffer solution was mixed gently using a pipetter to minimize denaturing due to over aggressive mixing. The final solution was transferred to a 50 μL cuvette for analysis.
Test solutions containing only the Abl kinase were prepared as follows: 5 μL of 40 μM Abl kinase was mixed with 195 μL Buffer to give a concentration of 1 μM Abl kinase in Buffer. The protein and buffer solution was mixed gently using a pipetter to minimize denaturing due to over aggressive mixing. The final solution was transferred to a 50 μL cuvette for analysis.
as §3

[7] = target: p38-alpha kinase (Homo sapiens, UniProt Q16539); conditions: time-dependent if IC50 values decrease with reaction time (more than two-fold in four hours)
p38-alpha kinase, sequence (Q16539 whole entry): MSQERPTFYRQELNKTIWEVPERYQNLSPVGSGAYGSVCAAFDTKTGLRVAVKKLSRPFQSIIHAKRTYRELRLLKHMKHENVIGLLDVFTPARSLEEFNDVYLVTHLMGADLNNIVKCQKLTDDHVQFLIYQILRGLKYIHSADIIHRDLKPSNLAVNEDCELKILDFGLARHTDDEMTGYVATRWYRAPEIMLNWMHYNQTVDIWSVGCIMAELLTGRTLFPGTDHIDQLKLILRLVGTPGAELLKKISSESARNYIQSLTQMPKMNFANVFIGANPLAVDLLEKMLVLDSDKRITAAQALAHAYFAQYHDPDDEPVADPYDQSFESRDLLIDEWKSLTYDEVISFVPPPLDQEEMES
Experimental: This dilution can be done automatically on a Tecan (or similar) robotic workstation or performed manually. • 3. […] This step can be performed automatically on a Tecan (or similar) robotic workstation or performed manually. • 4. Incubate at 30° C. or room temp for 2 h, depending on protein stability. • 5. Read at emission wavelength 420 nm upon excitation at 340 nm.

T2 sequence (Q16539 with tags, fused parts or gaps DEL261-261): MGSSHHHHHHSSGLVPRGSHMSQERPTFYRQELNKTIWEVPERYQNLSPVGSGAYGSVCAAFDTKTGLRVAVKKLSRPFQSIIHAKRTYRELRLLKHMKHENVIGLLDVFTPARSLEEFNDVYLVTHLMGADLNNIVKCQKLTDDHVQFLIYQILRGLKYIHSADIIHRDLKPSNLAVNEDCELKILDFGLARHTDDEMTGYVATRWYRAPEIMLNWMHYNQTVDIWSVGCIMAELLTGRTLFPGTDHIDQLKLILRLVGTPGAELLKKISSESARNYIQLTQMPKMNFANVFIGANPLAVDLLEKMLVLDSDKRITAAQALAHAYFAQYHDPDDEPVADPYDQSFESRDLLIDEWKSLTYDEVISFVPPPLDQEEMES
T3 sequence (Q16539 with tags, fused parts or gaps): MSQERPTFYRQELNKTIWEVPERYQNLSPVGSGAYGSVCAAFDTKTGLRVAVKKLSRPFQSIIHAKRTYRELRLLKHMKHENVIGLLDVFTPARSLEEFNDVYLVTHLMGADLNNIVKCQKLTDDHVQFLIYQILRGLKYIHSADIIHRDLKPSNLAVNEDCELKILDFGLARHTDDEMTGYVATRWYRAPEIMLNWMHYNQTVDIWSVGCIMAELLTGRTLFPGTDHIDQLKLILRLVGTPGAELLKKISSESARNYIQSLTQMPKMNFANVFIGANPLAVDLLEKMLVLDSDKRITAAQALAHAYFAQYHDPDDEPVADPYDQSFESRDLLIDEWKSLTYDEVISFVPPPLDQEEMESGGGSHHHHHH
T1 sequence (P15056 with tags, fused parts or gaps V600E): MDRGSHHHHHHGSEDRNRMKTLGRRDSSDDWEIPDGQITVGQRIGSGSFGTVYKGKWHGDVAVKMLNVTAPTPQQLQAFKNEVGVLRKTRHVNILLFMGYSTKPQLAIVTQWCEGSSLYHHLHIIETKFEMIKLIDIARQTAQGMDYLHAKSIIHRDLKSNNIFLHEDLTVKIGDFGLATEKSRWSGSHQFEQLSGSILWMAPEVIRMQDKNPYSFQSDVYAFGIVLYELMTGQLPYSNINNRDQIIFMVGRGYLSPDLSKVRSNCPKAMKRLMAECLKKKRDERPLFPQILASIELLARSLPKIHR

Row | SMILES | Ratio IC50s [2] | IC50 [2] [nM] | IC50 [3] [nM] | ΔTm (° C.) relative to unphosphorylated apo p38 [4] [°C] | ΔTm (° C.) relative to doubly phosphorylated p38 [5] [°C] | other results
1 | CC(C)(C)c1cc(NC(=O)Nc2cccc(Cl)c2Cl)n(-c2ccc(CC(N)=O)cc2)n1 [Example 84] |  |  |  |  |  | ΔTm at 20 µM [1]: 12.5 °C
2 | NC(=O)Cc1cccc(-n2nc(-c3ccccc3)cc2NC(=O)Nc2cccc(Cl)c2Cl)c1 [Example 77] | 1.1 | 25 | 57 | 8.0 | 5.3 | 
3 | CC(C)(C)c1cc(NC(=O)Nc2ccc(Cl)cc2)n(-c2ccc(CO)cc2)n1 [Example 61] | 0.8 | 24 | 19 | 8.5 | 5.9 | 
4 | CC(C)(C)c1cc(NC(=O)Nc2cccc(Cl)c2Cl)n(-c2cccc(C(=N)N)c2)n1 [Example 90] |  |  |  |  |  | ΔTm (° C.) relative to unphosphorylated Abl [6]: 1.3 °C
5 | CC(C)(C)c1cc(NC(=O)Nc2ccc(Cl)cc2)n(-c2cccc(CO)c2)n1 [Example 85] |  |  |  |  |  | ΔTm at 20 µM [1]: 2.9 °C
6 | CC(C)(C)c1cc(NC(=O)Nc2cccc3ccccc23)n(-c2cccc(C(C)(C)O)c2)n1 [Example 75] | 0.7 | 165 | 119 | 8.2 | 5.6 | 
7 | CC(C)(C)c1cc(NC(=O)Nc2cccc(Cl)c2Cl)n(-c2ccc3c(c2)C(N)=NCC3)n1 [Example 89] |  |  |  |  |  | ΔTm (° C.) relative to unphosphorylated Abl [6]: 1.8 °C
8 | CC(C)(C)c1cc(NC(=O)Nc2cccc(Cl)c2Cl)n(-c2ccc(CC(N)=O)cc2)n1 [Example 76] |  |  | 26 | 13.1 | 9.4 | 
9 | O=C(Nc1cccc(Cl)c1Cl)Nc1cc(-c2ccccc2)nn1-c1cccc(CO)c1 [Example 63] |  | 28 | 85 | 9.4 | 5.0 | 
10 | CC1(O)CCN(C(=O)Cc2ccc(-n3nc(C(C)(C)C)cc3NC(=O)Nc3cccc(Cl)c3Cl)cc2)CC1 [Example 70] | 2.3 | 26 | 26 | 12.6 | 8.7 | 
11 | CC1(C(=O)O)CC2(C)CC(C)(C1)C(=O)N(Cc1cccc(-n3nc(C(C)(C)C)cc3NC(=O)Nc3cccc4ccccc34)c1)C2=O (stereo not shown) [Example 11] |  |  |  |  |  | Time-dependent [7]: No
12 | NC(=O)Cc1cccc(-n2nc(-c3cscn3)cc2NC(=O)Nc2cccc(Cl)c2Cl)c1 [Example 78] | 1.5 | 233 | 195 | 6.7 | 3.9 | 
13 | CC(C)(C)c1cc(NC(=O)Nc2cccc(Cl)c2Cl)n(-c2ccc(CC(=O)N3CCS(=O)(=O)CC3)cc2)n1 [Example 96] | 3.0 | 7 | 8 |  |  | 
14 | CC(C)(C)c1cc(NC(=O)Nc2cccc3ccccc23)n(-c2ccc(OCC(=O)O)cc2)n1 [Example 92] | 3.1 | 52 | 160 |  |  | 
15 | CC(C)(C)c1cc(NC(=O)Nc2cccc(Oc3cccnc3)c2)n(-c2cccc(CC(N)=O)c2)n1 [Example 93, 1-(1-(3-(2-amino-2-oxoethyl)phenyl)-3-tert-butyl-1H-pyrazol-5-yl)-3-(3-(pyridin-3-yloxy)phenyl)urea] | 2.4 | 16 | 39 |  |  | 
16 | CNC(=O)Cc1cccc(-n2nc(C(C)(C)C)cc2NC(=O)Nc2cccc(Cl)c2Cl)c1 [Example 79] |  |  |  |  |  | ΔTm at 20 µM [1]: 12 °C
17 | CC(C)(C)c1cc(NC(=O)Nc2cccc(Cl)c2Cl)n(-c2ccc3c(c2)CN(S(C)(=O)=O)CC3)n1 [Example 80] |  |  |  |  |  | ΔTm at 20 µM [1]: 14.6 °C; ΔTm (° C.) relative to unphosphorylated Abl [6]: 2.3 °C
18 | CC(=O)N1CCc2ccc(-n3nc(C(C)(C)C)cc3NC(=O)Nc3cccc(Cl)c3Cl)cc2C1 [Example 88] |  |  |  |  |  | ΔTm (° C.) relative to unphosphorylated Abl [6]: 1.2 °C
19 | CC(C)(C)c1cc(NC(=O)Nc2cccc3ccccc23)n(-c2cccc(C(C)(C)O)c2)n1 [Example 83] |  |  |  |  |  | ΔTm at 20 µM [1]: 14.9 °C
20 | CC(C)(C)c1cc(NC(=O)Nc2cccc(Cl)c2Cl)n(-c2ccc3c(c2)CCNC3=O)n1 [Example 82] |  |  |  |  |  | ΔTm at 20 µM [1]: 13.5 °C
21 | CC(C)(C)c1cc(NC(=O)Nc2cccc3ccccc23)n(-c2cccc(CC(=O)N3CCOCC3)c2)n1 [Example 21, 1-(3-tert-butyl-1-(3-(2-morpholino-2-oxoethyl)phenyl)-1H-pyrazol-5-yl)-3-(naphthalen-1-yl)urea] |  |  |  |  |  | Time-dependent [7]: Yes
22 | CC(C)(C)c1cc(NC(=O)Nc2cccc3ccccc23)n(-c2cccc(CO)c2)n1 [Example 71] | 1.1 | 17 | 19 | 10.9 | 9.6 | 
23 | CC(C)(C)c1cc(NC(=O)Nc2cccc(Cl)c2Cl)n(-c2cccc(CC(N)=O)c2)n1 [Example 69] |  |  |  |  |  | Thermal denaturation assay ΔTm ([4]; unphosphorylated p38-alpha kinase): 13.10 °; Thermal denaturation assay ΔTm ([5]; phosphorylated p38-alpha kinase): 9.1 °
24 | Cc1ccc(NC(=O)Nc2cc(C(C)(C)C)nn2-c2ccc3c(c2)CCNC3)cc1Nc1ncccn1 [Example 94, 1-(3-tert-butyl-1-(1,2,3,4-tetrahydroisoquinolin-6-yl)-1H-pyrazol-5-yl)-3-(4-methyl-3-(pyrimidin-2-ylamino)phenyl)urea] | 1.9 | 10 | 19 |  |  | 
25 | CC(C)(C)c1cc(NC(=O)Nc2cccc(Cl)c2Cl)n(-c2cc(CNC(=O)NS(C)(=O)=O)c3ccccc3c2)n1 [Example 86] |  |  |  |  |  | ΔTm (° C.) relative to unphosphorylated Abl [6]: 4.0 °C
26 | CC(C)(C)c1cc(NC(=O)Nc2cccc3ccccc23)n(-c2ccc(C(O)C(F)(F)F)cc2)n1 (stereo not shown) [Example 73] |  |  |  | 8.9 | 5.9 | 
27 | CC(C)(C)c1cc(NC(=O)Nc2cccc3ccccc23)n(-c2ccc(CN)cc2)n1 [Example 45] |  |  |  |  |  | Time-dependent [7]: No
28 | COc1ccc(-n2nc(C(C)(C)C)cc2NC(=O)Nc2cccc(Cl)c2Cl)cc1 [Example 91] |  |  |  |  |  | ΔTm (° C.) relative to unphosphorylated Abl [6]: 12.5 °C
29 | CC(C)(C)c1cc(NC(=O)Nc2cccc(Cl)c2Cl)n(-c2cc(CO)c3ccccc3c2)n1 [Example 87] |  |  |  |  |  | ΔTm (° C.) relative to unphosphorylated Abl [6]: 3.6 °C
30 | CC(C)(C)c1cc(NC(=O)Nc2cccc(Cl)c2Cl)n(-c2ccc3c(c2)CCC(=O)N3)n1 [Example 81] |  |  |  |  |  | ΔTm at 20 µM [1]: 17.3 °C
